From patent US20250019385A1, “SPIROCYCLIC ANNULATED 2-AMINO-3-CYANO THIOPHENES AND DERIVATIVES FOR THE TREATMENT OF CANCER” (Boehringer Ingelheim International GmbH, priority 2023, published 2025)
Values after ≈ are worked out from the molar mass of the structure shown. Like-named read-outs stand apart in the source and are kept apart here.

Tests used:
[1] = tested on: SK-CO-1 cells; experiment: SK-CO-1 CTG proliferation assay (120 h) (CRC, G12V); type: cell-based; conditions: Homo sapiens
Experimental: SK—CO-1 cells (ATCC HTB-39) are dispensed into black 384-well plates, flat and clear bottom (Greiner, PNr. 781091) at a density of 500 cells per well in 60 μl EMEM (Sigma M5650)+10% FCS (fetal calf serum, HyClone, SH30084.03). Cells are incubated overnight at 37° C. in a humidified tissue culture incubator at 5% CO2. Compounds (10 mM stock in DMSO) are added at logarithmic dose series using the ECHO acoustic liquid handler system (Beckman Coulter), normalizing for added DMSO and including DMSO controls. All compound treatments are performed in technical duplicates. For the TO time point measurement, untreated cells are analyzed at the time of compound addition. Plates are incubated for 120 h, and cell viability is measured using CellTiter-Glo luminescent cell viability reagent (Promega product code G7570). Viability (stated as percent of control) is defined as relative luminescence units RLU of each well divided by the RLU of cells in DMSO controls. IC50 values are determined from viability measurements by non-linear regression using a four-parameter model.
IC50 values of representative compounds according to the invention measured with these assays in the indicated cell lines are presented in Table 46.

[2] = Metabolic (microsomal) stability assay, human liver microsomes (HLM); type: in vitro ADME; conditions: 1 μM test compound, predicted clearance as percent of liver blood flow
Experimental: The metabolic degradation of the test compound is assayed at 37° C. with pooled liver microsomes (mouse (MLM), rat (RLM) or human (HLM)). The final incubation volume of 48 μL per time point contains TRIS buffer (pH 7.5; 0.1 M), magnesium chloride (6.5 mM), microsomal protein (0.5 mg/mL for mouse/rat, 1 mg/mL for human specimens) and the test compound at a final concentration of 1 μM. Following a short preincubation period at 37° C., the reactions are initiated by addition of 12 μL beta-nicotinamide adenine dinucleotide phosphate, reduced form (NADPH, 10 mM) and terminated by transferring an aliquot into solvent after different time points (0, 5, 15, 30, 60 min). Additionally, the NADPH-independent degradation is monitored in incubations without NADPH, terminated at the last time point by addition of acetonitrile. The quenched incubations are pelleted by centrifugation (4,000 rpm, 15 min). An aliquot of the supernatant is assayed by LC-MS/MS to quantify the concentration of parent compound in the individual samples.
In vitro intrinsic clearance (CLint,in vitro) is calculated from the time course of the disappearance of the test drug during the microsomal incubation. Each plot is fitted to the first-order elimination rate constant as C(t)=C0*exp(−ke*t), where C(t) and C0 are the concentration of unchanged test drug at incubation time t and that at preincubation and ke is the disappearance rate constant of the unchanged drug. Subsequently, CLint, in vitro (μL min^−1·amount protein) values are converted to predicted CLint,in vivo (mL min^−1·kg^−1) from incubation parameters according to the equation CLint, in vivo=CLint, in vitro×(incubation volume (mL)/amount protein (mg))×(amount protein (mg)/g liver tissue)×(liver weight/body wt.).
For better across species comparison the predicted clearance is expressed as percent of the liver blood flow [% QH] (mL min^−1·kg^−1) in the individual species. In general, high stability (corresponding to low % QH) of the compounds across species is desired.

[3] = tested on: Ba/F3 cells KRAS G12D; experiment: Ba/F3 proliferation assay (KRAS G12D); type: cell-based; conditions: Mus musculus, BaF3, 72 h, AlamarBlue viability
Experimental: Ba/F3 cells are ordered from DSMZ (ACC300, Lot17) and grown in RPMI-1640 (ATCC 30-2001)+10% FCS+10 ng/mL IL-3 at 37° C. in 5% […] atmosphere. Plasmids containing KRASG12 mutants (i.e. […], G12C, G12V) are obtained from GeneScript. To generate KRASG12-dependent Ba/F3 models, Ba/F3 cells are transduced with retroviruses containing vectors that harbor KRASG12 isoforms. Platinum-E cells (Cell Biolabs) are used for retrovirus packaging. Retrovirus is added to Ba/F3 cells. To ensure infection, 4 μg/mL polybrene is added and cells are spinfected. Infection efficiency is confirmed by measuring GFP-positive cells using a cell analyzer. Cells with an infection efficiency of 10% to 20% are further cultivated and puromycin selection with 1 μg/mL is initiated. As a control, parental Ba/F3 cells are used to show selection status. Selection is considered successful when parental Ba/F3 cells cultures died. To evaluate the transforming potential of KRASG12 mutations, the growth medium is no longer supplemented with IL-3. Ba/F3 cells harboring the empty vector are used as a control. Approximately ten days before conducting the experiments, puromycin is left out.
For proliferation assays, Ba/F3 cells are seeded into 384-well plates at 1.5×1 (M cells/60 μL in growth media (RPMI-1640+10% FCS). Compounds (10 mM stock in DMSO) are added at logarithmic dose series using the ECHO acoustic liquid handler system (Beckman Coulter), normalizing for added DMSO and including DMSO controls. All compound treatments are performed in technical duplicates. For the TO time point measurement, untreated cells are analyzed at the time of compound addition. Treated cells are incubated for 72 h at 37° C. with 5% CO2 and cell viability is measured in the PerkinElmer Envision Multimode Reader using AlamarBlue™ (ThermoFisher) viability stain. Viability (stated as percent of control) is defined as relative fluorescence units RFU of each well divided by the RFU of cells in DMSO controls. IC50 values are determined from viability measurements by non-linear regression using a four-parameter model.

[4] = Solubility measurement (DMSO solution precipitation method); type: physicochemical; conditions: aqueous buffer, kinetic from dmso stock
Experimental: A 10 mM DMSO stock solution of a test compound is used to determine its aq. solubility. The DMSO solution is diluted with an aq. medium (McIlvaine buffer with pH=4.5 or 6.8) to a final concentration of 250 μM. After 24 h of shaking at ambient temperature a potentially formed precipitate is removed by filtration. The concentration of the test compound in the filtrate is determined by LC-UV methods by calibrating the signal to the signal of a reference solution with complete dissolution of the test compound in acetonitrile/water (1:1) with known concentration.

[5] = McIlvaine buffer pH 4.5, 24 h, read-out: solubility pH 4.5
[6] = McIlvaine buffer pH 6.8, 24 h, read-out: solubility pH 6.8

Row | SMILES | IC50 [1] [nM] | HLM QH [2] [%] | IC50 [3] [nM] | solubility at 24 h [4, 5] [µg/mL] | solubility at 24 h [4, 6] [µg/mL]
1 | C[C@H](Oc1nc(-c2noc3c2CCC[C@@]32CCCc3sc(N)c(C#N)c32)nc2c1CCCO[C@]21CCOC1)[C@@H]1CCCN1C [II-10] | 4 | 47 | 22 | – | –
2 | C[C@H](Oc1nc(-c2onc3c2CCC[C@@]32CCCc3sc(N)c(C#N)c32)nc2c1n(C)c(=O)n2C1COC1)[C@@H]1CCCN1C [I-24] | 75 | <24 | 134 | > 155 | > 140
3 | C[C@H](Oc1nc(-c2noc3c2CCC[C@@]32CCCc3sc(N)c(C#N)c32)nc2c1n(C)c(=O)n2[C@@H]1CCOC1)[C@@H]1CCCN1C [II-2] | 3 | 40 | 9 | > 154 | > 153
4 | C[C@H](Oc1nc(-c2noc3c2CCC[C@@]32CCCc3sc(N)c(C#N)c32)nc2c1CN(C1COC1)C[C@]21CCOC1)[C@@H]1CC[C@H](C)N1C [II-17] | 5 | – | 6 | > 138 | 102 (≈ 152 µM)
5 | C[C@H](Oc1nc(-c2onc3c2CCC[C@@]32CCCc3sc(N)c(C#N)c32)nc2c1n(C)c(=O)n2[C@@H]1CCOC1)C12CCCN1CCC2 [I-25] | 11 | 33 | 25 | > 155 | > 154
6 | CCn1c(=O)n([C@@H]2CCCOC2)c2nc(-c3onc4c3CCC[C@@]43CCCc4sc(N)c(C#N)c43)nc(OCC3(CN4CCCC4)CC3)c21 [I-35] | 185 | 53 | 411 | – | –
7 | CO[C@@H]1C[C@@H]([C@H](C)Oc2nc(-c3noc4c3CCC[C@@]43CCCc4sc(N)c(C#N)c43)nc3c2COC[C@]32CCOC2)N(C)C1 [II-11] | 4 | 64 | 4 | > 144 | 45 (≈ 71.1 µM)
8 | C[C@H](Oc1nc(-c2onc3c2CCC[C@@]32CCCc3sc(N)c(C#N)c32)nc2c1n(C)c(=O)n2[C@@H]1CCOC1)[C@@H]1C[C@H](F)CN1C [I-27] | 55 | 58 | 55 | > 153 | 9 (≈ 13.9 µM)
9 | C[C@H](Oc1nc(-c2onc3c2CCC[C@@]32CCCc3sc(N)c(C#N)c32)nc2c1CN(C1COC1)C[C@]21CCOC1)[C@@H]1CCCN1C [I-56] | 7 | <24 | 13 | > 157 | > 147
10 | CO[C@H]1CCN(C)[C@@H]1[C@H](C)Oc1nc(-c2onc3c2CCC[C@@]32CCCc3sc(N)c(C#N)c32)nc2c1n(C)c(=O)n2[C@@H]1CCOC1 [I-23] | 6 | 77 | 10 | > 157 | 36 (≈ 54.5 µM)
11 | CO[C@H]1CCN(C)[C@@H]1[C@H](C)Oc1nc(-c2onc3c2CCC[C@@]32CCCc3sc(N)c(C#N)c32)nc2c1CN(C1COC1)C[C@]21CCOC1 [I-57] | 7 | 61 | 11 | > 167 | 72 (≈ 105 µM)
12 | Cc1cn([C@@H]2CCOC2)c2nc(-c3onc4c3CCC[C@@]43CCCc4sc(N)c(C#N)c43)nc(O[C@@H](C)[C@@H]3CCCN3C)c12 [I-41] | 18 | <24 | 106 | > 137 | 32 (≈ 52.1 µM)
13 | C[C@H](Oc1nc(-c2onc3c2CCC[C@@]32CCCc3sc(N)c(C#N)c32)nc2c1n(C)c(=O)n2[C@@]12COC[C@@H]1C2)[C@@H]1CCCN1C [I-29] | 1 | <24 | 14 | > 161 | > 165
14 | C[C@H](Oc1nc(-c2onc3c2CCC[C@@]32CCCc3sc(N)c(C#N)c32)nc2c1n(C)c(=O)n2[C@@H]1CCOC1)[C@@H]1CCCN1C [I-20] | 3 | 26 | 9 | > 151 | > 154
15 | C[C@H](Oc1nc(-c2onc3c2CCC[C@@]32CCCc3sc(N)c(C#N)c32)nc2c1n(C)c(=O)n2[C@H]1CCCOC1)[C@@H]1CCCN1C [I-11] | 445 | – | 344 | > 149 | 99 (≈ 154 µM)
16 | C[C@H](Oc1nc(-c2onc3c2CCC[C@@]32CCCc3sc(N)c(C#N)c32)nc2c1n(C)c(=O)n2[C@H]1CO[C@@H](C)C1)[C@@H]1CCCN1C [I-47] | – | <24 | 1 | > 132 | 101 (≈ 157 µM)
17 | C[C@H](Oc1nc(-c2noc3c2CCC[C@@]32SCCc3sc(N)c(C#N)c32)nc2c1COC[C@]21CCOC1)[C@@H]1CCCN1C [II-16] | 2 | 64 | 3 | – | –
18 | C[C@@H]1COC[C@H](n2c(=O)n(C)c3c(O[C@@H](C)[C@@H]4CCCN4C)nc(-c4onc5c4CCC[C@@]54CCCc5sc(N)c(C#N)c54)nc32)C1 [I-44] | 5 | – | 17 | > 157 | 2 (≈ 3.04 µM)
19 | C[C@H](Oc1nc(-c2onc3c2CCC[C@@]32CCCc3sc(N)c(C#N)c32)nc2c1n(C)c(=O)n2[C@H]1CO[C@@H](C)C1)[C@@H]1CC[C@H](C)N1C [I-50] | – | 35 | 4 | 124 (≈ 188 µM) | 103 (≈ 156 µM)
20 | CO[C@@H]1C[C@@H]([C@H](C)Oc2nc(-c3onc4c3CCC[C@@]43CCCc4sc(N)c(C#N)c43)nc3c2n(C)c(=O)n3[C@H]2COC[C@@H](C)C2)N(C)C1 [I-52] | – | 46 | 28 | > 153 | < 1
21 | CO[C@H]1CCN(C)[C@@H]1[C@H](C)Oc1nc(-c2onc3c2CCC[C@@]32CCCc3sc(N)c(C#N)c32)nc2c1n(C)c(=O)n2[C@H]1COC[C@@H](C)C1 [I-51] | – | 74 | 26 | > 153 | < 1
